Source: article PMC6753678, “Fueling Open Innovation for Malaria Transmission-Blocking Drugs: Hundreds of Molecules Targeting Early Parasite Mosquito Stages” (Frontiers in Microbiology, 2019)

Test system: P. berghei ookinete development
Settings: primary screen at 1 μM

Row | SMILES | % inhibition, Replicate A [%] | % inhibition, Replicate B [%]
1 | Cc1nc(SCC(=O)N2CCCC2=O)c2c(C)c(C)sc2n1 [TCMDC-123558] | 50.04 | 22.22
2 | CC(C)Oc1ccc2c(c1)OC(c1ccccc1)(C(F)(F)F)NC2=O (stereo not shown) [TCMDC-123633] | 24.49 | 54.58
3 | O=C(Nc1ccccc1O)c1ccc(S(=O)(=O)c2ccc(Cl)cc2)cc1 [TCMDC-123689] | 23.88 | 50.54
4 | CCCC(=O)Nc1ccc(Cl)c(NC(=O)COc2cc(C)ccc2C(C)C)c1 [TCMDC-123706] | 60.12 | 20.94
5 | Cl.O=C(CNC1CCCCC1)c1ccc(O)c(O)c1 [TCMDC-123961] | 31.52 | 68.95
6 | CC1Cc2ccccc2N1S(=O)(=O)c1cc(OCC(F)(F)F)ccc1OCC(F)(F)F (stereo not shown) [TCMDC-124044] | 52.34 | 21.81
7 | CCOC(=O)c1cn(CC)c2cc(N3CCCCCC3)c(F)cc2c1=O [TCMDC-124160] | 101.92 | 113.32
8 | c1ccc(-c2csc(Nc3nc4cc5c(cc4s3)OCO5)n2)nc1 [TCMDC-124550] | 83.78 | 59.07
9 | Cc1ccc(CN2CCC(C(=O)Nc3ccc(-c4cc5ccccc5[nH]4)cc3)CC2)o1 [TCMDC-124634] | 35.55 | 65.49
10 | COc1cc(OC)cc(C(=O)Nc2ccc(Nc3nc(C)cc(N(C)C)n3)cc2)c1 [TCMDC-124726] | 52.96 | 25.99
11 | Cc1ccc(-c2noc(COc3ccccc3C(=O)NC3CCCC3)n2)cc1 [TCMDC-124748] | 70.37 | 89.43
12 | Cc1cc(C(=O)NC2CCN(CC3(c4ccc(Cl)cc4)CCC3)CC2)on1 [TCMDC-124833] | 70.28 | 68.63
13 | O=C(CSc1nn(-c2ccccc2)c(=S)s1)c1c[nH]c2ccccc12 [TCMDC-124894] | 61.81 | 32.04
14 | COc1cc(CN2CCN(c3ccnc(N(C)C4CCN(C)CC4)n3)CC2)cc(Cl)c1O [TCMDC-125096] | 51.09 | 24.20
15 | CCN(CC)CCCC(C)Nc1c2ccc(Cl)cc2nc2ccc(OC)cc12.Cl.O (stereo not shown) [TCMDC-125480] | 33.29 | 58.69
16 | Br.CCc1ccccc1OCCCON1C(=N)N=C(N)NC1(C)C [TCMDC-131305] | 58.24 | 46.89
17 | CCSc1ccccc1COc1c(C)nc(N)nc1N.Cl [TCMDC-131359] | 61.82 | 19.87
18 | N=C1NC(=N)N(OCCCCCCON2C(=N)NC(=N)NC2C=Cc2ccccc2)C(C=Cc2ccccc2)N1 (stereo not shown) [TCMDC-131602] | 52.81 | 32.33
19 | Br.CC1(C)N=C(N)N=C(N)N1OCCc1ccc2ccccc2c1 [TCMDC-131755] | 66.00 | 52.02
20 | CC(C)c1cccc(C(C)C)c1NC(=O)NNC(=O)c1ccc(CCN2CCC(c3nc(COCC(F)(F)F)c(-c4ccc(F)cc4)o3)CC2)cc1 [TCMDC-131908] | 61.66 | 23.60
21 | CN1CCC(C(=O)Nc2ccc(-c3cccc(-c4nc5cc(F)ccc5[nH]4)c3)cc2)CC1 [TCMDC-132180] | 7.14 | 53.61
22 | CS(=O)(=O)NCCCNCc1cccc(-c2ccc(-c3nc4ccccc4[nH]3)s2)c1.O=C(O)C(F)(F)F [TCMDC-133088] | 41.67 | 56.04
23 | Cc1cccc2nc(-c3ccc(-c4ccc(NC(=O)NCc5cccc(F)c5)cc4)cc3)[nH]c12 [TCMDC-133294] | 56.07 | 54.12
